Reference: patent US8247211B2, “Glycopeptide antibiotics” (American Cyanamid Company, priority 2001, dated 2012)
Converted amounts (≈) assume the structure as drawn.

Tests used:
[1] = Anatomic pathology (heart and kidney histopathology) in mice; assay type: in vivo, CD-1 mice; details: 20 mg/kg intravenously daily for 9 days, microscopic histopathology on day 10
In short: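 Juvenile CD-1 mice (20 days old; 5 vehicle, 5 treated) received glycopeptide antibiotic 20 mg/kg i.v. daily for 9 days. Necropsied tissues formalin-fixed, paraffin-embedded, H&E stained and examined microscopically; findings graded slight to severe versus controls.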

Enterococcus sp. = test: In vitro antibacterial evaluation: minimum inhibitory concentration (MIC), broth dilution method; assay type: cell-based; details: broth dilution, 5×10^5 CFU/mL, 18 hours at 35° C.
In short: (§1)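 Following NCCLS approved standard M7-A2, compounds are serially diluted from 64 to 0.06 μg/mL in Muller-Hinton II […] and inoculated at 5×10^5 CFU/mL; the MIC is the minimum concentration at which growth is inhibited.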

Staphylococcus sp. = test: as above; assay type: cell-based; details: for MIC Staphylococcus aureus (ATCC 29213): strain ATCC 29213; for MIC Staphylococcus aureus (GC 1131): strain GC 1131; for MIC Staphylococcus aureus (GC 4541): strain GC 4541; for MIC Staphylococcus aureus (GC 4542): strain GC 4542; for MIC Staphylococcus aureus-SMITH (GC 4543): strain GC 4543; for MIC Staphylococcus aureus (GC 4544): strain GC 4544; for MIC Staphylococcus aureus (GC 4545): strain GC 4545; for MIC Staphylococcus haemolyticus (GC 4546): strain GC 4546; for MIC Coagulase Negative Staphylococcus (GC 4547): strain GC 4547; for MIC Coagulase Negative Staphylococcus (GC 4548): strain GC 4548; for MIC Coagulase Negative Staphylococcus (GC 4549): strain GC 4549; for MIC Coagulase Negative Staphylococcus (GC 4551): strain GC 4551; for MIC Coagulase Negative Staphylococcus (GC 6257): strain GC 6257; for MIC Coagulase Negative Staphylococcus (ID-3941): strain ID-3941
In short: as §1

Escherichia coli = test: as above; assay type: cell-based; details: 5×10^5 CFU/mL, 18 hours at 35° C.
In short: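 NCCLS M7-A2 broth dilution with Mueller-Hinton II, testing 64-0.06 μg/mL antibiotic against 5×10^5 CFU/mL inocula. Test strains include recent methicillin-, penicillin- or vancomycin-resistant clinical isolates. MIC is the lowest concentration preventing growth.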

Streptococcus sp. = test: as above; assay type: cell-based; details: broth dilution, 5×10^5 CFU/mL, 18 hours at 35° C.
In short: as §1

[2] = assay type: in vivo; details: mice, 20 mg/kg intravenously daily for 9 days, serum on day 10
Experimental: 20-day-old CD-1 mice were divided into a vehicle control group (5 mice) and a treatment group (5 mice). Samples of glycopeptide antibiotics were administered at 20 mg/kg intravenously daily for 9 days. Animals were necropsied on day 10 Sera were analyzed for BUN (blood urea nitrogen), creatinine, AST (aspartic aminotransferase), and ALT (alanine aminotransferase) by routine, standard, automated methods using an Hitachi 747 chemistry analyzer.

[3] = test system: Streptococcus pneumoniae (GC 1894), penicillin resistant strain; test: Acute lethal infection in mice (ED50); assay type: in vivo; details: female CD-1 mice, intraperitoneal challenge, intravenous dose 30 min. after infection, 7 day survival ratios
In short: (§2)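 Median effective dose is calculated from 7-day survival ratios pooled across three separate tests. Mice (female CD-1) receive an intraperitoneal bacterial challenge in broth or hog gastric mucin, then intravenous drug 30 min later, five animals per dose level.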

[4] = test system: Staphylococcus aureus-SMITH (GC 4543); test: Acute lethal infection in mice (ED50); assay type: in vivo; details: female CD-1 mice, intraperitoneal challenge, intravenous dose 30 min. after infection, 7 day survival ratios
In short: as §2

[5] = test system: Enterococcus faecalis (GC 6189), vancomycin resistant strain; test: Acute lethal infection in mice (ED50); assay type: in vivo; details: female CD-1 mice, intraperitoneal challenge, intravenous dose 30 min. after infection, 7 day survival ratios
In short: as §2

[6] = broth dilution, 18 hours at 35° C.

## CC(c1ccccc1)C1NC(=O)CNC(=O)C(CO)NC(=O)C(C(O)C2CNC(=N)N2C2OC(CO)C(O)C(O)C2O)NC(=O)C(C(O)C2CNC(=N)N2)NC(=O)C(Cc2ccc(OC3OC(CO)C(OC4OC5COC(c6ccccc6)OC5C(O)C4O)C(O)C3O)cc2)NC1=O (stereo not drawn) [Example 104, Cyclo[glycyl-β-methylphenylalanyl-O-[4-O-(4,6-O-benzylidenehexopyranosyl)hexopyranosyl]-tyrosyl-3-(2-iminoimidazolidin-4-yl)seryl-3-(3-hexopyranosyl-2-iminoimidazolidin-4-yl)-serylseryl]]
[1]
  Anatomical Pathology (Day 10), Heart: +++
  Anatomical Pathology (Day 10), Kidney: +++
Enterococcus sp.
  MIC Enterococccus avium (GC 4558): 2 to 4 µg/mL
  MIC Enterococccus faecalis (ATCC 29212): 2 to 4 µg/mL
  MIC Enterococccus faecalis (GC 2691): 4 µg/mL (≈ 2.89 µM)
  MIC Enterococccus faecalis (GC 3059): 4 µg/mL (≈ 2.89 µM)
  MIC Enterococccus faecalis (GC 4552): 4 µg/mL (≈ 2.89 µM)
  MIC Enterococccus faecalis (GC 4553): 4 µg/mL (≈ 2.89 µM)
  MIC Enterococccus faecalis (GC 4554): 4 µg/mL (≈ 2.89 µM)
  MIC Enterococccus faecalis (GC 6189): 2 µg/mL (≈ 1.45 µM)
  MIC Enterococccus faecium (GC 2243): 2 µg/mL (≈ 1.45 µM)
  MIC Enterococccus faecium (GC 4556): 2 to 4 µg/mL
  MIC Enterococccus faecium (GC 4557): 2 µg/mL (≈ 1.45 µM)
  MIC Enterococcus faecalis (GC 2242): 2 µg/mL (≈ 1.45 µM)
Staphylococcus sp.
  MIC Staphylococcus aureus (ATCC 29213): 1 µg/mL (≈ 0.723 µM)
  MIC Staphylococcus aureus (GC 1131): 2 µg/mL (≈ 1.45 µM)
  MIC Staphylococcus aureus (GC 4541): 1 µg/mL (≈ 0.723 µM)
  MIC Staphylococcus aureus (GC 4542): 0.5 µg/mL (≈ 0.361 µM)
  MIC Staphylococcus aureus (GC 4544): 1 µg/mL (≈ 0.723 µM)
  MIC Staphylococcus aureus (GC 4545): 0.5 to 1 µg/mL
  MIC Staphylococcus haemolyticus (GC 4546): 0.5 µg/mL (≈ 0.361 µM)
  MIC Coagulase Negative Staphylococcus (GC 4547): 1 µg/mL (≈ 0.723 µM)
  MIC Coagulase Negative Staphylococcus (GC 4548): 0.5 to 1 µg/mL
  MIC Coagulase Negative Staphylococcus (GC 4549): 0.5 µg/mL (≈ 0.361 µM)
  MIC Coagulase Negative Staphylococcus (GC 4551): 1 µg/mL (≈ 0.723 µM)
  MIC Coagulase Negative Staphylococcus (GC 6257): 0.5 µg/mL (≈ 0.361 µM)
Staphylococcus sp.; strain GC 3051
  MIC Staphylococcus aureus (GC 3051): 1 µg/mL (≈ 0.723 µM)
Staphylococcus sp.; strain GC 3053
  MIC Staphylococcus aureus (GC 3053): 1 µg/mL (≈ 0.723 µM)
Staphylococcus sp.; 18 hours at 35° C.
  MIC Staphylococcus aureus-SMITH (GC 4543): 0.5 to 1 µg/mL
Staphylococcus sp.; [6]
  MIC Staphylococcus aureus-SMITH (GC 4543): 0.5 to 1 µg/mL
  MIC Staphylococcus haemolyticus (GC 4546): 0.5 µg/mL (≈ 0.361 µM)
  MIC Coagulase Negative Staphylococcus (GC 4547): 1 µg/mL (≈ 0.723 µM)
  MIC Coagulase Negative Staphylococcus (GC 4548): 0.5 to 1 µg/mL
  MIC Coagulase Negative Staphylococcus (GC 4549): 0.5 µg/mL (≈ 0.361 µM)
  MIC Coagulase Negative Staphylococcus (GC 4551): 1 µg/mL (≈ 0.723 µM)
  MIC Coagulase Negative Staphylococcus (GC 6257): 0.5 µg/mL (≈ 0.361 µM)
Escherichia coli
  MIC Escherichia coli (GC 4560): 0.5 to 1 µg/mL
Streptococcus sp.
  MIC Streptococcus pneumoniae (GC 1894): <0.12 µg/mL
  MIC Streptococcus pneumoniae (GC 4565): <0.12 µg/mL
  MIC Streptococcus pneumonine (ATCC 6301): <0.12 µg/mL
  MIC Streptococcus pyogenes (GC 4563): <0.12 µg/mL
[2]
  Clinical Chemistry (Day 10) % of Control, AST: +87%
  Clinical Chemistry (Day 10) % of Control, Creatinine: +65%
[3]
  median effective dose (ED50), Streptococcus pneumoniae (GC 1894): 0.22 mg/kg
[4]
  median effective dose (ED50), Staphylococcus aureus-SMITH (GC 4543): 0.19 mg/kg
[5]
  median effective dose (ED50), Enterococcus faecalis (GC 6189): 0.39-0.63

## CC(c1ccccc1)C1NC(=O)CNC(=O)C(CO)NC(=O)C(C(O)C2CNC(=N)N2C2OC(CO)C(O)C(O)C2O)NC(=O)C(C(O)C2CNC(=N)N2)NC(=O)C(Cc2ccc(OC3OC(CO)C(OC4OC5COC(C6CCCCC6)OC5C(O)C4O)C(O)C3O)cc2)NC1=O (stereo not drawn) [Example 112]
Enterococcus sp.
  MIC Enterococccus avium (GC 4558): 2 µg/mL (≈ 1.44 µM)
  MIC Enterococccus faecalis (ATCC 29212): 2 µg/mL (≈ 1.44 µM)
  MIC Enterococccus faecalis (GC 2691): 2 µg/mL (≈ 1.44 µM)
  MIC Enterococccus faecalis (GC 3059): 2 µg/mL (≈ 1.44 µM)
  MIC Enterococccus faecalis (GC 4552): 2 µg/mL (≈ 1.44 µM)
  MIC Enterococccus faecalis (GC 4553): 2 to 4 µg/mL
  MIC Enterococccus faecalis (GC 4554): 2 µg/mL (≈ 1.44 µM)
  MIC Enterococccus faecalis (GC 6189): 2 µg/mL (≈ 1.44 µM)
  MIC Enterococccus faecium (GC 2243): 1 to 2 µg/mL
  MIC Enterococccus faecium (GC 4556): 2 µg/mL (≈ 1.44 µM)
  MIC Enterococccus faecium (GC 4557): 0.5 to 2 µg/mL
  MIC Enterococcus faecalis (GC 2242): 1 to 2 µg/mL
Staphylococcus sp.
  MIC Staphylococcus aureus (ATCC 29213): 1 µg/mL (≈ 0.72 µM)
  MIC Staphylococcus aureus (GC 1131): 0.5 to 1 µg/mL
  MIC Staphylococcus aureus (GC 4541): 1 µg/mL (≈ 0.72 µM)
  MIC Staphylococcus aureus (GC 4542): 1 µg/mL (≈ 0.72 µM)
  MIC Staphylococcus aureus (GC 4544): 0.5 to 2 µg/mL
  MIC Staphylococcus aureus (GC 4545): 1 to 2 µg/mL
  MIC Staphylococcus haemolyticus (GC 4546): 1 µg/mL (≈ 0.72 µM)
  MIC Coagulase Negative Staphylococcus (GC 4547): 0.5 to 1 µg/mL
  MIC Coagulase Negative Staphylococcus (GC 4548): 0.5 to 1 µg/mL
  MIC Coagulase Negative Staphylococcus (GC 4549): 0.5 to 1 µg/mL
  MIC Coagulase Negative Staphylococcus (GC 4551): 0.5 to 1 µg/mL
  MIC Coagulase Negative Staphylococcus (GC 6257): 1 µg/mL (≈ 0.72 µM)
  MIC Coagulase Negative Staphylococcus (ID-3941): 0.5 µg/mL (≈ 0.36 µM)
Staphylococcus sp.; [6]
  MIC Staphylococcus aureus (ATCC 29213): 1 µg/mL (≈ 0.72 µM)
  MIC Staphylococcus aureus (GC 1131): 0.5 to 1 µg/mL
  MIC Staphylococcus aureus (GC 4541): 1 µg/mL (≈ 0.72 µM)
  MIC Staphylococcus aureus (GC 4542): 1 µg/mL (≈ 0.72 µM)
  MIC Staphylococcus aureus-SMITH (GC 4543): 0.5 to 1 µg/mL
  MIC Staphylococcus aureus (GC 4544): 0.5 to 2 µg/mL
  MIC Staphylococcus aureus (GC 4545): 1 to 2 µg/mL
  MIC Staphylococcus haemolyticus (GC 4546): 1 µg/mL (≈ 0.72 µM)
  MIC Coagulase Negative Staphylococcus (GC 4547): 0.5 to 1 µg/mL
  MIC Coagulase Negative Staphylococcus (GC 4548): 0.5 to 1 µg/mL
  MIC Coagulase Negative Staphylococcus (GC 4549): 0.5 to 1 µg/mL
  MIC Coagulase Negative Staphylococcus (GC 4551): 0.5 to 1 µg/mL
  MIC Coagulase Negative Staphylococcus (GC 6257): 1 µg/mL (≈ 0.72 µM)
  MIC Coagulase Negative Staphylococcus (ID-3941): 0.5 µg/mL (≈ 0.36 µM)
Staphylococcus sp.; 18 hours at 35° C.
  MIC Staphylococcus aureus-SMITH (GC 4543): 0.5 to 1 µg/mL
Escherichia coli
  MIC Escherichia coli (ATCC 25922): 32 µg/mL (≈ 23 µM)
  MIC Escherichia coli (GC 4559): >16 µg/mL
  MIC Escherichia coli (GC 4560): 1 µg/mL (≈ 0.72 µM)
Streptococcus sp.
  MIC Streptococcus agalactiae (GC 4564): <0.12 µg/mL
  MIC Streptococcus pneumoniae (GC 4565): <0.12 µg/mL
  MIC Streptococcus pyogenes (GC 4563): <0.12 µg/mL
  MIC Streptococcus pyogenes (ID-3187): 0.5 µg/mL (≈ 0.36 µM)
[3]
  median effective dose (ED50), Streptococcus pneumoniae (GC 1894): 0.02 mg/kg
[4]
  median effective dose (ED50), Staphylococcus aureus-SMITH (GC 4543): 0.07-0.08
[5]
  median effective dose (ED50), Enterococcus faecalis (GC 6189): 0.19-0.28
